Assay results published in patent publication US5407918A, “16-membered macrolide derivatives and process for producing the same” (Meiji Seika Kaisha, Ltd., priority 1992, dated 1995).
Converted amounts (≈) assume the structure as drawn.

What was measured:
[1] = concentration in serum after oral administration to mice, bioassay; format: in vivo, mice (Jcl:ICR)
Procedure: The compound (3) was mixed with a 0.2% solution of carboxymethylcellulose to give a concentration of 4 mg/ml and a 1 ml portion of the resulting emulsion was orally administered to 4-week-old male Jcl:ICR mice. Blood was collected from armpit of the mice 30, 60, 120, 240 and 360 minutes after the administration of the test compound (n=2). The collected blood was allowed to stand at room temperature for about 2 hours and centrifuged for 20 minutes with a centrifuge (KUBOTA KS-5000P) to obtain serum. To the serum was added an equivalent volume of 50% CH3 CN-50 mM phosphate (1:1 by volume) buffer (pH 7.0). The resulting mixture served as a serum sample. The concentration of the test compound in the serum sample was measured by the following bioassay method.
One hundred […] of the serum sample was poured into a hole made on a test plate containing 40 ml of MRAPJ medium (6 g/l peptone, 3 g/l yeast extract, 1.5 g/l meat extract, 1 g/l glucose and 15 g/l agar, pH 6.5) supplemented with a solution of M. Iuteus ATCC9341 (1%) and incubated at 32° C. for 18 hours and MIC was measured based on the calibration curve. MOM, MDM and RKM were also tested for comparison. […] Thus a long-pending problem of "low concentration in serum" of 16-membered macrolide antibiotics has been solved. […] Thus this compound is considered as a macrolide derivative showing new pharmacokinetics.
Further, a pharmacokinetics test on the compound (12) of the present invention is carried out in the same manner as described above. Namely, 200 mg/kg of the compound (12) is orally administered to mice and the concentration of this compound in the serum is determined by a bioassay method with the use of M. luteus as a test strain. […] The disadvantage of 16-membered ring macrolide antibiotics, which has been pointed out for a long time, has been thus overcome.

[2] = system: test strains; assay: antimicrobial activity in vitro, comparison in words; format: cell-based; conditions: for antimicrobial activity in vitro compared with MOM: data are not shown; for antimicrobial activity compared with LM-A7: except on Haemophilus influenzae, Tables 2 and 3
Procedure: (§1) Antimicrobial activities of the compounds of the present invention were determined by measuring minimum inhibitory concentration (MIC). Minimum inhibitory concentration was determined by the agar plate dilution method in the following manner.
(§2) Test strains were subjected to seed culture using Sensitivity test broth (STB, Nissui Pharmaceutical) except that the strains belonging to the genus Streptococcus, Branhamella and Haemophilus were cultured on blood agar plate. A 5 μl portion of cell suspension of the test strains having about 10^6 CFU/ml was inoculated into Sensitivity disk agar (SDA, Nissui Pharmaceutical) supplemented with 5% horse blood and incubated at 37° C. for 20 hours. Then, MIC was measured. For comparison, MDM and leucomycin A7 (LM-A7) was also tested.

[3] = system: Gram-positive bacteria; assay: antimicrobial activity in vitro (summary in words); format: cell-based; conditions: from Tables 2 and 3
Procedure: as §1, §2

[4] = system: S. Pyogenes Cook; assay: MIC, agar plate dilution method; format: cell-based; conditions: Streptococcus pyogenes, 37° C., 20 hours, read-out: Antimicrobial activity (MIC)
Procedure: as §1, §2

[5] = system: S. pneumoniae IP692; assay: MIC, agar plate dilution method; format: cell-based; conditions: Streptococcus pneumoniae; S. pneumoniae IP692; 37° C., 20 hours; read-out: Antimicrobial activity (MIC)
Procedure: as §1, §2

[6] = system: E. coli NIHJ JC-2; assay: MIC, agar plate dilution method; format: cell-based; conditions: Escherichia coli, NIHJJC2; E. coli NIHJ JC-2; 37° C., 20 hours; read-out: Antimicrobial activity (MIC)
Procedure: as §1, §2

[7] = system: B. catarrhalis W-0506; assay: MIC, agar plate dilution method; format: cell-based; conditions: Moraxella catarrhalis, W0506, 37° C., 20 hours, read-out: Antimicrobial activity (MIC)
Procedure: as §1, §2

[8] = system: S. epidermidis ATCC14990; assay: MIC, agar plate dilution method; format: cell-based; conditions: Staphylococcus epidermidis, 37° C., 20 hours, read-out: Antimicrobial activity (MIC)
Procedure: as §1, §2

[9] = system: S. aureus MS15009/pMS99; assay: MIC, agar plate dilution method; format: cell-based; conditions: Staphylococcus aureus, MS15009/PMS99, 20 h, read-out: Antimicrobial activity (MIC)
Procedure: as §1, §2

[10] = system: K. pneumoniae PC1602; assay: MIC, agar plate dilution method; format: cell-based; conditions: Klebsiella pneumoniae, 37° C., 20 hours, read-out: Antimicrobial activity (MIC)
Procedure: as §1, §2

[11] = system: M. luteus ATCC9341; assay: MIC, agar plate dilution method; format: cell-based; conditions: Micrococcus luteus; M. luteus ATCC9341; 37° C., 20 hours; read-out: Antimicrobial activity (MIC)
Procedure: as §1, §2

[12] = system: S. aureus MS15027; assay: MIC, agar plate dilution method; format: cell-based; conditions: Staphylococcus aureus, 37° C., 20 hours, read-out: Antimicrobial activity (MIC)
Procedure: as §1, §2

[13] = system: S. Pneumoniae Type 1; assay: MIC, agar plate dilution method; format: cell-based; conditions: Streptococcus pneumoniae; S. Pneumoniae Type 1; 37° C., 20 hours; read-out: Antimicrobial activity (MIC)
Procedure: as §1, §2

[14] = system: H. influenzae Type b; assay: MIC, agar plate dilution method; format: cell-based; conditions: Haemophilus influenzae; H. influenzae Type b; 37° C., 20 hours; read-out: Antimicrobial activity (MIC)
Procedure: as §1, §2

[15] = system: S. aureus M126; assay: MIC, agar plate dilution method; format: cell-based; conditions: Staphylococcus aureus; S. aureus M126; 37° C., 20 hours; read-out: Antimicrobial activity (MIC)
Procedure: as §1, §2

[16] = system: E. faecalis W-73; assay: MIC, agar plate dilution method; format: cell-based; conditions: Enterococcus faecalis, W73; E. faecalis W-73; 37° C., 20 hours; read-out: Antimicrobial activity (MIC)
Procedure: as §1, §2

[17] = system: H. influenzae 9334; assay: MIC, agar plate dilution method; format: cell-based; conditions: Haemophilus influenzae; H. influenzae 9334; 37° C., 20 hours; read-out: Antimicrobial activity (MIC)
Procedure: as §1, §2

[18] = system: S. aureus MS15009/pMS98; assay: MIC, agar plate dilution method; format: cell-based; conditions: Staphylococcus aureus, MS15009/PMS98, 20 h, read-out: Antimicrobial activity (MIC)
Procedure: as §1, §2

[19] = system: S. aureus MS15026; assay: MIC, agar plate dilution method; format: cell-based; conditions: Staphylococcus aureus, 37° C., 20 hours, read-out: Antimicrobial activity (MIC)
Procedure: as §1, §2

[20] = system: S. aureus 209P JC-1; assay: MIC, agar plate dilution method; format: cell-based; conditions: Staphylococcus aureus; S. aureus 209P JC-1; 37° C., 20 hours; read-out: Antimicrobial activity (MIC)
Procedure: as §1, §2

[21] = system: S. aureus M133; assay: MIC, agar plate dilution method; format: cell-based; conditions: Staphylococcus aureus, 37° C., 20 hours, read-out: Antimicrobial activity (MIC)
Procedure: as §1, §2

[22] = system: B. catarrhalis W-0500; assay: MIC, agar plate dilution method; format: cell-based; conditions: Moraxella catarrhalis, W0500, 37° C., 20 hours, read-out: Antimicrobial activity (MIC)
Procedure: as §1, §2

| SMILES | antimicrobial activity in vitro compared with MOM [2] | antimicrobial activity compared with LM-A7 [2] | antimicrobial activity on Gram-positive bacteria [3] | MIC [4] [µg/mL] | MIC [5] [µg/mL] | MIC [6] [µg/mL] | MIC [7] [µg/mL] | MIC [8] [µg/mL] | MIC [9] [µg/mL] | MIC [10] [µg/mL] | MIC [11] [µg/mL] | MIC [12] [µg/mL] | MIC [13] [µg/mL] | MIC [14] [µg/mL] | MIC [15] [µg/mL] | MIC [16] [µg/mL] | MIC [17] [µg/mL] | MIC [18] [µg/mL] | MIC [19] [µg/mL] | MIC [20] [µg/mL] | further results |
| --- | --- | --- | --- | --- | --- | --- | --- | --- | --- | --- | --- | --- | --- | --- | --- | --- | --- | --- | --- | --- | --- |
| CO[C@@H]1[C@@H](O[C@@H]2O[C@H](C)[C@@H](O[C@H]3C[C@@](C)(OC)[C@@H](OCCC(C)C)[C@H](C)O3)[C@H](N(C)C)[C@H]2O)[C@@H](CC=O)C[C@@H](C)[C@@H](O)/C=C/C=C/C[C@@H](C)OC(=O)C[C@H]1O [(12)] | clearly much superior to MOM | comparable or superior | strong antimicrobial activity | 0.05 (≈ 0.0636 µM) | 0.1 (≈ 0.127 µM) | > 100 | 0.39 (≈ 0.496 µM) | 0.39 (≈ 0.496 µM) | > 100 | > 100 | 0.05 (≈ 0.0636 µM) | 0.39 (≈ 0.496 µM) | 0.1 (≈ 0.127 µM) | 6.25 (≈ 7.95 µM) | > 100 | 0.39 (≈ 0.496 µM) | 1.56 (≈ 1.98 µM) | 0.2 (≈ 0.254 µM) | > 100 | 0.1 (≈ 0.127 µM) | Cmax ([1]; mouse, serum, 200 mg/kg, M. luteus bioassay, read-out: maximum concentration in the serum): 11500 ng/mL; maximum concentration in the serum, comparison in words ([1]; versus clarythromycin (CAM) or other 16-membered macrolides): comparable to that of CAM; MIC [21]: 0.39 µg/mL (≈ 0.496 µM); MIC [22]: 0.39 µg/mL (≈ 0.496 µM) |
| CCCCCO[C@H]1[C@H](C)O[C@@H](O[C@H]2[C@H](N(C)C)[C@@H](O)[C@H](O[C@H]3[C@@H](CC=O)C[C@@H](C)[C@@H](O)/C=C/C=C/C[C@@H](C)OC(=O)C[C@@H](O)[C@@H]3OC)O[C@@H]2C)C[C@@]1(C)OC [(11)] | clearly much superior to MOM | comparable or superior | strong antimicrobial activity | 0.1 (≈ 0.127 µM) | 0.05 (≈ 0.0636 µM) | > 100 | 0.78 (≈ 0.992 µM) | 0.39 (≈ 0.496 µM) | > 100 | > 100 | 0.05 (≈ 0.0636 µM) | 0.39 (≈ 0.496 µM) | 0.2 (≈ 0.254 µM) | 12.5 (≈ 15.9 µM) | > 100 | 0.39 (≈ 0.496 µM) | 3.13 (≈ 3.98 µM) | 0.39 (≈ 0.496 µM) | > 100 | 0.1 (≈ 0.127 µM) | MIC [21]: 0.39 µg/mL (≈ 0.496 µM); MIC [22]: 0.39 µg/mL (≈ 0.496 µM) |
